Test: Solubility of thermal acid generators in organic solvents (super-saturated solution, shaken 16 hours, filtered, solid content by Thermal Gravimetric Analysis)
Format: physicochemical
Conditions: room temperature, TGA; for Solubility in HBM (solid content of filtered solution): 2-hydroxyisobutyric acid methyl ester (HBM); for Solubility in EL (solid content of filtered solution): ethyl lactate (EL); for Solubility in PGME (solid content of filtered solution): propylene glycol methyl ether (PGME)

SMILES | Solubility in HBM (solid content of filtered solution) [wt. %] | Solubility in EL (solid content of filtered solution) [wt. %] | Solubility in PGME (solid content of filtered solution) [wt. %]
Cc1ccccn1 [Example 1, 2-methylpyridin-1-ium 4-methylbenzenesulfonate] | 20 | 29 | 27
COc1ccncc1 [Example 2, 4-methoxypyridin-1-ium 4-methylbenzenesulfonate] | 18 | 32 | 26
